How the values were obtained:
[1] = target: T1, holocarboxylase synthetase (HLCS) (Homo sapiens, UniProt P50747); test: Competition studies with biotin; assay type: biochemical; details: for apparent Vmax with inhibitor: 250 μM inhibitor, biotin varied 0-320 μM, n=4; for Mechanism of HLCS inhibition: competition studies with biotin
T1 sequence (P50747 1-726): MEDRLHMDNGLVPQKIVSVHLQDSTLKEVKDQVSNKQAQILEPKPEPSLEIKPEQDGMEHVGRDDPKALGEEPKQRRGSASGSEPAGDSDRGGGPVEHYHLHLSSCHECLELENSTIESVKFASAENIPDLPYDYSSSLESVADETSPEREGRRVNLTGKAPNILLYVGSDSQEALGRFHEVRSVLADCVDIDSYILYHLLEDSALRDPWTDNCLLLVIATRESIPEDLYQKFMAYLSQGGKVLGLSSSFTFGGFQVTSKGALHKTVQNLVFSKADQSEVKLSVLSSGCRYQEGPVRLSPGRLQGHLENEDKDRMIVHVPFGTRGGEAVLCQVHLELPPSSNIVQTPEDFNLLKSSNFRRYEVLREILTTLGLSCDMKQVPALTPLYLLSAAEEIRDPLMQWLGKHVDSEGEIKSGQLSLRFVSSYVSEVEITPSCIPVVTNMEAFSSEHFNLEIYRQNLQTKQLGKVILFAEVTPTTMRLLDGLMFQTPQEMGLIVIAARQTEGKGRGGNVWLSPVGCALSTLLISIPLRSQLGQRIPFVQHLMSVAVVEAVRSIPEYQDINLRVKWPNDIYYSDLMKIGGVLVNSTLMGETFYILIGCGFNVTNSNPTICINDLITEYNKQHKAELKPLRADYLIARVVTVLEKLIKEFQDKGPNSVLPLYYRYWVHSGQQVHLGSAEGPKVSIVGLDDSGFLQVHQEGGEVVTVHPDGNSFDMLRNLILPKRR

[2] = target: T1, holocarboxylase synthetase (HLCS); test: Inhibition of HLCS-catalysed biotinylation of recombinant p67; assay type: biochemical; details: data not shown

| Compound | apparent Vmax with inhibitor [1] | Mechanism of HLCS inhibition [1] | Mechanism of HLCS inhibition ([1]; listed as β-KetoP) | Mechanism of HLCS inhibition ([1]; listed as β-HydroxyP) | HLCS inhibition (negative control, in words) [2] | Mechanism of HLCS inhibition ([1]; listed as Biotinol-AMP) |
| --- | --- | --- | --- | --- | --- | --- |
| N.Nc1ncnc2c1ncn2[C@@H]1O[C@H](COP(=O)(O)CC(=O)CCCC[C@@H]2SC[C@@H]3NC(=O)N[C@@H]32)[C@@H](O)[C@H]1O [β-ketoP, biotin β-ketophosphonate-5′-AMP] | 31.5±1.6 pmol biotinylated p67/(nmol HLCS x s) | competitive | competitive inhibitor | – | – | – |
| N.Nc1ncnc2c1ncn2[C@@H]1O[C@H](COP(=O)(O)CC(O)CCCC[C@@H]2SC[C@@H]3NC(=O)N[C@@H]32)[C@@H](O)[C@H]1O (stereo partly drawn) [β-hydroxyP, biotin β-hydroxyphosphonate-5′-AMP] | 20.6±1.8 pmol biotinylated p67/(nmol HLCS x s) | competitive | – | competitive inhibitor | – | – |
| COP(=O)(O)CC(=O)CCCC[C@@H]1SC[C@@H]2NC(=O)N[C@@H]21 [compound 3] | – | – | – | – | did not inhibit HLCS | – |
| Nc1ncnc2c1ncn2[C@@H]1O[C@H](COP(=O)(O)OCCCCC[C@@H]2SC[C@@H]3NC(=O)N[C@@H]32)[C@@H](O)[C@H]1O [biotinol-5'-AMP, biotinol-5′-AMP, reference compound] | – | mixed | – | – | – | mixed inhibitor |

From publication PMC4255142 (Bioorganic & medicinal chemistry letters, 2014)
